From the NIST ThermoML archive (doi:10.1016/j.jct.2006.10.011)
Several values for one entry are separate records, joined by “and”; a condition that tells them apart may be missing. Equal entries are not always repeated. ± gives the expanded uncertainty stated by the source.

Test: molar heat capacity at constant pressure
Conditions: 101.33 kPa, Crystal

O [water]
Conditions	molar heat capacity at constant pressure
0.4719 K, Low-temperature adiabatic	4.834e-06 ± 4.7e-06 J/K/mol
0.4841 K, Low-temperature adiabatic	2.38e-05 ± 2.6e-06 J/K/mol
0.5 K, adiabatic	2.28e-05 ± 6.4e-06 J/K/mol
0.5191 K, Low-temperature adiabatic	3.571e-05 ± 4.3e-06 J/K/mol
0.5328 K, Low-temperature adiabatic	2.99e-05 ± 3.1e-06 J/K/mol
0.5456 K, Low-temperature adiabatic	3.104e-05 ± 4.2e-06 J/K/mol
0.5713 K, Low-temperature adiabatic	3.382e-05 ± 4.9e-06 J/K/mol
0.5859 K, Low-temperature adiabatic	3.177e-05 ± 4.9e-06 J/K/mol
0.5999 K, Low-temperature adiabatic	3.883e-05 ± 3.7e-06 J/K/mol
0.6287 K, Low-temperature adiabatic	4.342e-05 ± 3.4e-06 J/K/mol
0.6451 K, Low-temperature adiabatic	3.414e-05 ± 4.2e-06 J/K/mol
0.6608 K, Low-temperature adiabatic	4.582e-05 ± 4.6e-06 J/K/mol
0.6935 K, Low-temperature adiabatic	5.952e-05 ± 5.2e-06 J/K/mol
0.7107 K, Low-temperature adiabatic	6.565e-05 ± 6.4e-06 J/K/mol
0.7283 K, Low-temperature adiabatic	7.207e-05 ± 6.4e-06 J/K/mol
0.764 K, Low-temperature adiabatic	7.817e-05 ± 8.2e-06 J/K/mol
0.783 K, Low-temperature adiabatic	8.554e-05 ± 7.7e-06 J/K/mol
0.8021 K, Low-temperature adiabatic	9.413e-05 ± 7.9e-06 J/K/mol
0.8407 K, Low-temperature adiabatic	0.0001158 ± 8e-06 J/K/mol
0.8618 K, Low-temperature adiabatic	0.0001219 ± 8e-06 J/K/mol
0.8828 K, Low-temperature adiabatic	0.0001311 ± 9.6e-06 J/K/mol
0.9245 K, Low-temperature adiabatic	0.0001506 ± 9.4e-06 J/K/mol
0.9708 K, Low-temperature adiabatic	0.000169 ± 9.8e-06 J/K/mol
1 K, adiabatic	0.0001825 ± 1.2e-05 J/K/mol
1.015 K, Low-temperature adiabatic	0.0001986 ± 1e-05 J/K/mol
1.04 K, Low-temperature adiabatic	0.0002059 ± 1.1e-05 J/K/mol
1.066 K, Low-temperature adiabatic	0.0002218 ± 1.3e-05 J/K/mol
1.116 K, Low-temperature adiabatic	0.0002582 ± 1.3e-05 J/K/mol
1.146 K, Low-temperature adiabatic	0.0002671 ± 1.5e-05 J/K/mol
1.173 K, Low-temperature adiabatic	0.0002946 ± 1.7e-05 J/K/mol
1.228 K, Low-temperature adiabatic	0.0003386 ± 1.7e-05 J/K/mol
1.261 K, Low-temperature adiabatic	0.0003738 ± 1.9e-05 J/K/mol
1.292 K, Low-temperature adiabatic	0.0004076 ± 1.8e-05 J/K/mol
1.352 K, Low-temperature adiabatic	0.0004587 ± 2.1e-05 J/K/mol
1.388 K, Low-temperature adiabatic	0.0004915 ± 2.1e-05 J/K/mol
1.485 K, Low-temperature adiabatic	0.0006013 ± 2.4e-05 J/K/mol
1.5 K, adiabatic	0.0006167 ± 2.6e-05 J/K/mol
1.522 K, Low-temperature adiabatic	0.0006394 ± 2.5e-05 J/K/mol
1.561 K, Low-temperature adiabatic	0.0006901 ± 2.5e-05 J/K/mol
1.634 K, Low-temperature adiabatic	0.0007957 ± 3.1e-05 J/K/mol
1.675 K, Low-temperature adiabatic	0.0008489 ± 3.1e-05 J/K/mol
1.716 K, Low-temperature adiabatic	0.0009132 ± 3.1e-05 J/K/mol
1.731 K, Low-temperature adiabatic	0.0009652 ± 3.2e-05 J/K/mol
1.798 K, Low-temperature adiabatic	0.001053 ± 3.5e-05 J/K/mol
1.816 K, Low-temperature adiabatic	0.001109 ± 3.6e-05 J/K/mol
1.843 K, Low-temperature adiabatic	0.001123 ± 3.5e-05 J/K/mol
1.887 K, Low-temperature adiabatic	0.001207 ± 3.9e-05 J/K/mol
1.904 K, Low-temperature adiabatic	0.00125 ± 3.8e-05 J/K/mol
1.977 K, Low-temperature adiabatic	0.00139 ± 4.3e-05 J/K/mol
1.998 K, Low-temperature adiabatic	0.001434 ± 4.4e-05 J/K/mol
2 K, adiabatic	0.001465 ± 4.6e-05 J/K/mol
2.027 K, Low-temperature adiabatic	0.001484 ± 4.4e-05 J/K/mol
2.076 K, Low-temperature adiabatic	0.001598 ± 4.7e-05 J/K/mol
2.095 K, Low-temperature adiabatic	0.001659 ± 4.7e-05 J/K/mol
2.175 K, Low-temperature adiabatic	0.00184 ± 5.5e-05 J/K/mol
2.2 K, Low-temperature adiabatic	0.001902 ± 5.4e-05 J/K/mol
2.304 K, Low-temperature adiabatic	0.002208 ± 5.9e-05 J/K/mol
2.421 K, Low-temperature adiabatic	0.002544 ± 6.6e-05 J/K/mol
2.5 K, adiabatic	0.002874 ± 7.2e-05 J/K/mol
2.536 K, Low-temperature adiabatic	0.002963 ± 7.5e-05 J/K/mol
2.664 K, Low-temperature adiabatic	0.003432 ± 8.3e-05 J/K/mol
2.791 K, Low-temperature adiabatic	0.003994 ± 9e-05 J/K/mol
2.932 K, Low-temperature adiabatic	0.004612 ± 0.0001 J/K/mol
3 K, adiabatic	0.004998 ± 0.00011 J/K/mol
3.073 K, Low-temperature adiabatic	0.005384 ± 0.00011 J/K/mol
3.228 K, Low-temperature adiabatic	0.006206 ± 0.00012 J/K/mol
3.381 K, Low-temperature adiabatic	0.007213 ± 0.00013 J/K/mol
3.5 K, adiabatic	0.008013 ± 0.00015 J/K/mol
3.552 K, Low-temperature adiabatic	0.008311 ± 0.00015 J/K/mol
3.719 K, Low-temperature adiabatic	0.00968 ± 0.00017 J/K/mol
3.906 K, Low-temperature adiabatic	0.01117 ± 0.00019 J/K/mol
4 K, adiabatic	0.01212 ± 0.0002 J/K/mol
4.089 K, Low-temperature adiabatic	0.01302 ± 0.00021 J/K/mol
4.294 K, Low-temperature adiabatic	0.01503 ± 0.00023 J/K/mol
4.498 K, Low-temperature adiabatic	0.01756 ± 0.00026 J/K/mol
4.5 K, adiabatic	0.01755 ± 0.00026 J/K/mol
4.723 K, Low-temperature adiabatic	0.02031 ± 0.0003 J/K/mol
4.947 K, Low-temperature adiabatic	0.02384 ± 0.00033 J/K/mol
5 K, adiabatic	0.02458 ± 0.00034 J/K/mol
5.194 K, Low-temperature adiabatic	0.02762 ± 0.00038 J/K/mol
5.44 K, Low-temperature adiabatic	0.03248 ± 0.00042 J/K/mol
5.5 K, adiabatic	0.03354 ± 0.00044 J/K/mol
5.713 K, Low-temperature adiabatic	0.03773 ± 0.00048 J/K/mol
5.985 K, Low-temperature adiabatic	0.04456 ± 0.00054 J/K/mol
6 K, adiabatic	0.04478 ± 0.00055 J/K/mol
6.284 K, Low-temperature adiabatic	0.05186 ± 0.00063 J/K/mol
6.5 K, adiabatic	0.05874 ± 0.00069 J/K/mol
6.583 K, Low-temperature adiabatic	0.06156 ± 0.00071 J/K/mol
6.912 K, Low-temperature adiabatic	0.07207 ± 0.00082 J/K/mol
7 K, adiabatic	0.07583 ± 0.00085 J/K/mol
7.239 K, Low-temperature adiabatic	0.08574 ± 0.00094 J/K/mol
7.5 K, adiabatic	0.09651 ± 0.001 J/K/mol
7.6 K, Low-temperature adiabatic	0.1009 ± 0.0011 J/K/mol
7.96 K, Low-temperature adiabatic	0.1206 ± 0.0012 J/K/mol
8 K, adiabatic	0.1212 ± 0.0012 J/K/mol
8.354 K, Low-temperature adiabatic	0.1416 ± 0.0014 J/K/mol
8.5 K, adiabatic	0.1503 ± 0.0015 J/K/mol
8.75 K, Low-temperature adiabatic	0.1684 ± 0.0016 J/K/mol
9 K, adiabatic	0.1842 ± 0.0017 J/K/mol
9.185 K, Low-temperature adiabatic	0.1972 ± 0.0018 J/K/mol
9.187 K, Low-temperature adiabatic	0.1979 ± 0.0018 J/K/mol
9.5 K, adiabatic	0.2231 ± 0.002 J/K/mol
9.619 K, Low-temperature adiabatic	0.2343 ± 0.0021 J/K/mol
9.645 K, Low-temperature adiabatic	0.2352 ± 0.0021 J/K/mol
10 K, adiabatic	0.2672 ± 0.0024 J/K/mol
10.11 K, Low-temperature adiabatic	0.2752 ± 0.0024 J/K/mol and 0.2768 ± 0.0024 J/K/mol
10.59 K, Low-temperature adiabatic	0.3268 ± 0.0027 J/K/mol
10.6 K, Low-temperature adiabatic	0.3266 ± 0.0027 J/K/mol
11 K, adiabatic	0.3709 ± 0.0029 J/K/mol
11.12 K, Low-temperature adiabatic	0.3841 ± 0.003 J/K/mol
11.66 K, Low-temperature adiabatic	0.4516 ± 0.0034 J/K/mol
12 K, adiabatic	0.4948 ± 0.0036 J/K/mol
12.23 K, Low-temperature adiabatic	0.5267 ± 0.0038 J/K/mol
12.82 K, Low-temperature adiabatic	0.6103 ± 0.0043 J/K/mol
13 K, adiabatic	0.6372 ± 0.0044 J/K/mol
13.43 K, Low-temperature adiabatic	0.7044 ± 0.0047 J/K/mol
14 K, adiabatic	0.7967 ± 0.0052 J/K/mol
14.08 K, Low-temperature adiabatic	0.8099 ± 0.0053 J/K/mol
14.75 K, Low-temperature adiabatic	0.9261 ± 0.0059 J/K/mol
15 K, adiabatic	0.9716 ± 0.0061 J/K/mol
15.46 K, Low-temperature adiabatic	1.058 ± 0.0065 J/K/mol
16 K, adiabatic	1.16 ± 0.007 J/K/mol
16.19 K, Low-temperature adiabatic	1.197 ± 0.0071 J/K/mol
16.99 K, Low-temperature adiabatic	1.356 ± 0.0079 J/K/mol
17 K, adiabatic	1.358 ± 0.0079 J/K/mol
17.79 K, Low-temperature adiabatic	1.518 ± 0.0087 J/K/mol
18 K, adiabatic	1.564 ± 0.0089 J/K/mol
18.66 K, Low-temperature adiabatic	1.704 ± 0.0095 J/K/mol
19 K, adiabatic	1.777 ± 0.0099 J/K/mol
19.55 K, Low-temperature adiabatic	1.895 ± 0.011 J/K/mol
19.6 K, Low-temperature adiabatic	1.908 ± 0.011 J/K/mol
20 K, adiabatic	1.993 ± 0.011 J/K/mol
20.58 K, Low-temperature adiabatic	2.12 ± 0.011 J/K/mol
21.46 K, Low-temperature adiabatic	2.315 ± 0.012 J/K/mol
22 K, adiabatic	2.433 ± 0.013 J/K/mol
22.52 K, Low-temperature adiabatic	2.55 ± 0.013 J/K/mol
23.59 K, Low-temperature adiabatic	2.78 ± 0.015 J/K/mol
24 K, adiabatic	2.873 ± 0.015 J/K/mol
24.75 K, Low-temperature adiabatic	3.037 ± 0.016 J/K/mol
25.92 K, Low-temperature adiabatic	3.292 ± 0.017 J/K/mol
26 K, adiabatic	3.306 ± 0.017 J/K/mol
27.21 K, Low-temperature adiabatic	3.562 ± 0.018 J/K/mol
28 K, adiabatic	3.728 ± 0.019 J/K/mol
28.49 K, Low-temperature adiabatic	3.828 ± 0.02 J/K/mol
29.94 K, Low-temperature adiabatic	4.128 ± 0.021 J/K/mol
30 K, adiabatic	4.139 ± 0.021 J/K/mol
31.38 K, Low-temperature adiabatic	4.423 ± 0.022 J/K/mol
32 K, adiabatic	4.543 ± 0.023 J/K/mol
32.99 K, Low-temperature adiabatic	4.735 ± 0.024 J/K/mol
34 K, adiabatic	4.947 ± 0.025 J/K/mol
34.59 K, Low-temperature adiabatic	5.067 ± 0.026 J/K/mol
36 K, adiabatic	5.363 ± 0.027 J/K/mol
36.02 K, Low-temperature adiabatic	5.371 ± 0.027 J/K/mol
37.45 K, Low-temperature adiabatic	5.677 ± 0.029 J/K/mol
38 K, adiabatic	5.804 ± 0.029 J/K/mol
